Source: article PMC7127602 (Bioorganic & Medicinal Chemistry, 2007)

Target: SARS-CoV M^pro (Severe acute respiratory syndrome coronavirus, UniProt P0C6X7)
Format: biochemical

| Compound | Increase in IC50 relative to compound 2 |
| --- | --- |
| O=C(Oc1cncc(Cl)c1)c1ccc(-c2ccccc2[N+](=O)[O-])o1 [compound 4] | threefold |
| O=C(Oc1cncc(Cl)c1)c1ccc(-c2cccc([N+](=O)[O-])c2)o1 [compound 5] | eightfold |
